Data on 2 compounds can be found in patent publication US3941776A, “Resolution/racemization of aminolactam compounds” (Allied Chemical Corporation, priority 1974, dated 1976).

Structures are written as SMILES.

Common to all, as to type: physicochemical
A short description of data set [1]: Racemization of L-ACL in ACL/NiCl2 solution with sodium methoxide (Example 1, Table 1). The settings on record: 0.20 M NiCl2. The method, then: A sample of 0.702g. […] The molar ratio of ACL to NiCl2 in this solution is 3.5. […] Samples of 2.0 ml each of the solution were sealed and placed in a 60°C. (50° and 40°) bath. At different time intervals the samples were taken from the bath to determine the extent of racemization of L-ACL. To this end each sample was quenched and adjusted to 5.0 ml with 1N.HCl. […] The latter correlation is indicative of the importance of rendering Ni^+^+ coordinately saturated. It should be noted that even at temperatures as low as 40°C. suitable reaction rates are obtained and, in general, a temperature range of about 40° to about 95°C. may be used.

The nature of data set [2]: Racemization of L-ACL with NiCl2 and base from ion exchange resin (Example 4). As for the experimental part: a. A 20 ml ethanol solution containing 8 mmol (D,L-ACL)3 NiCl2 and 8 mmol D,L-ACL was passed through a strongly basic [quaternary ammonium hydroxide type (ANGA-542*)] ion exchange column in about 1 hour. The complex solution was followed by 15 ml ethanol and the combined eluent brought to 50 ml in a volumetric flask.
A reaction solution was prepared from 0.518g (2 mmol) of 50% L-ACL (88% optically pure) in ethanol, 1.13g (4.4 mmol) 50% D,L-ACL in ethanol and 2.48 ml 0.645 M in NiCl2.H2 O in ethanol. This was brought to reflux and 2.5 ml of the solution described above was added. The final quantities thus are total ACL 8 mmol, Ni^+^2, 2 mmol, ^-OH (free or bound to Ni^+^2), 0.3 mmol and Cl^-. 3.7 Mmol, in a total volume of 6.7 ml.
b. A 10 ml sample of 0.90 M NiCl2. H2 O in ethanol, was passed through a weakly basic ion exchange resin (IR-45, supplied by Rohm and Haas Company). The eluent had pH 5.5 (measured with a glass electrode in ethanol; the pH of untreated NiCl2 solution was about 3.7). A 1 ml aliquot of the eluent, containing 0.15 m atoms of Ni^+^+, was mixed with 78 mg (0.60 mmols) of L-ACL in 1 ml methanol. The mixture was heated in a sealed vial at 80°C. for 30 minutes.

Data set [3] is described as follows: Racemization of L-ACL.HCl/L-ACL with catalysts (Examples 13-42, Table IV). As to conditions: 15 minutes at 70°C, Cu^II (5-nitrosalicylaldehyde)2, H2O/dimethylformamide 20/80. The method, then: A solution containing 0.160g (1.25 mmol) L-ACL, 0.206g (1.25 mmol) L-ACL.HCl and […] of Cu^II (5-nitrosalicylaldehyde)2 in 20/80 (v/v) H2 O/dimethylformamide (10 ml overall volume) was heated for 15 minutes at 70°C.
Following the procedure of Example 13, racemization of L-ACL.HCl was conducted in the presence of various catalysts and under various conditions of temperature and concentration; the data is summarized in Table IV.

As for `N[C@H]1CCCCNC1=O` [L-ACL, L-α-amino-ε-caprolactam], the “Racemization Rate t1/2” value in data set [1] (ACL/NiCl2 mole ratio 3.5, Ethanol, 60°C) was determined as 1.17 h; in data set [1] (ACL/NiCl2 mole ratio 3.5, Methanol, 40°C), 16.73 h; in data set [1] (ACL/NiCl2 mole ratio 3.5, Methanol, 50°C), 5.67 h; in data set [1] (ACL/NiCl2 mole ratio 4, Ethanol, 60°C), 0.717 h; in data set [1] (ACL/NiCl2 mole ratio 4, Methanol, 40°C), 12.8 h; in data set [1] (ACL/NiCl2 mole ratio 4, Methanol, 50°C) it was 4.33 h. Also, the “Racemization Rate t1/2” value in data set [1] (ACL/NiCl2 mole ratio 5, Ethanol, 60°C) is 0.433 h; in data set [1] (ACL/NiCl2 mole ratio 5, Methanol, 40°C), 9.72 h; in data set [1] (ACL/NiCl2 mole ratio 5, Methanol, 50°C), 2.7 h; in data set [1] (ACL/NiCl2 mole ratio 6, Ethanol, 60°C), 0.367 h; in data set [1] (ACL/NiCl2 mole ratio 6, Methanol, 40°C) it was 10.2 h; in data set [1] (ACL/NiCl2 mole ratio 6, Methanol, 50°C), 2.83 h. Also, the extent of racemization result in data set [2] (80°C, 30 minutes, NiCl2 eluent from IR-45 resin, methanol) is recorded as “completely racemized”. Moreover, in data set [2] (ethanol, reflux (~80°C), NiCl2, base from ANGA-542 resin), the t1/2 of racemization amounted to 0.175 h.

For `Cl.N[C@H]1CCCCNC1=O` [L-ACL.HCl, L-α-amino-ε-caprolactam hydrochloride], the extent of racemization entry in data set [3] was “complete racemization”.
